Test results taken from ChEMBL document CHEMBL1131406, “Tripeptide growth hormone secretagogues” (Bioorg Med Chem Lett, 1998).

Columns and labels:
Rattus norvegicus [1] = species on record: Rattus norvegicus; assay: Tested in vitro for growth hormone release from rat pituitary cells; format: functional, cell-based, Pituitary gland cell
Rattus norvegicus [2] = species on record: Rattus norvegicus; assay: Compound was tested in vitro for growth hormone release from rat pituitary cells; Inactive; format: functional, cell-based; conditions: pituitary gland cell
[3] = Rattus norvegicus, Pituitary gland cell

Structure (SMILES) | EC50 (Rattus norvegicus [1]; [3]) | also measured
CCOC(=O)[C@@H](CCc1ccccc1)NC(=O)[C@@H](Cc1c[nH]c2ccccc12)NC(=O)C(C)(C)N |  | EC50 (Rattus norvegicus [1]; pituitary gland cell): 50 nM
CCOC(=O)[C@H](Cc1cccc2ccccc12)NC(=O)[C@@H](Cc1c[nH]c2ccccc12)NC(=O)C(C)(C)N | 40 nM | 
CC(C)(N)C(=O)N[C@H](Cc1c[nH]c2ccccc12)C(=O)NCCCCc1ccccc1 | 700 nM | 
CCNC(=O)[C@@H](CCc1ccccc1)NC(=O)[C@@H](Cc1c[nH]c2ccccc12)NC(=O)C(C)(C)N | 246 nM | 
CC(C)(N)C(=O)N[C@H](Cc1c[nH]c2ccccc12)C(=O)NCc1ccc2ccccc2c1 | 85 nM | 
CC(C)(N)C(=O)N[C@H](Cc1c[nH]c2ccccc12)C(=O)N[C@H](CCc1ccccc1)C(=O)O | > 500 nM | 
CCOC(=O)[C@H](Cc1ccccc1)N(C)C(=O)[C@@H](Cc1c[nH]c2ccccc12)NC(=O)C(C)(C)N | 40 nM | 
CCOC(=O)[C@H](CCCc1ccccc1)NC(=O)[C@@H](Cc1c[nH]c2ccccc12)NC(=O)C(C)(C)N | 820 nM | 
CC(C)(N)C(=O)N[C@H](Cc1c[nH]c2ccccc12)C(=O)NCCc1ccccc1 |  | EC50 (Rattus norvegicus [2]): Not Active
CCOC(=O)[C@H](CCc1ccccc1)N(C)C(=O)[C@@H](Cc1c[nH]c2ccccc12)NC(=O)C(C)(C)N | 270 nM | 
CCOC(=O)[C@@H](CCc1ccccc1)NC(=O)[C@H](Cc1c[nH]c2ccccc12)NC(=O)C(C)(C)N |  | EC50 (Rattus norvegicus [2]): Not Active
CC(C)(N)C(=O)N[C@H](Cc1c[nH]c2ccccc12)C(=O)NCCc1cccc2ccccc12 | 860 nM | 
CCOC(=O)[C@@H](Cc1ccccc1)NC(=O)[C@@H](Cc1c[nH]c2ccccc12)NC(=O)C(C)(C)N | 350 nM | 
CC(C)(N)C(=O)N[C@H](Cc1c[nH]c2ccccc12)C(=O)NCc1cccc2ccccc12 |  | EC50 (Rattus norvegicus [2]): Not Active
CCOC(=O)[C@@H](CCc1ccccc1)NC(=O)[C@@H](Cc1cccc2ccccc12)NC(=O)C(C)(C)N | > 50 nM | 
COC(=O)[C@@H](CCc1ccccc1)NC(=O)[C@@H](Cc1c[nH]c2ccccc12)NC(=O)C(C)(C)N | 18 nM | 
CCOC(=O)[C@H](Cc1ccc2ccccc2c1)NC(=O)[C@@H](Cc1c[nH]c2ccccc12)NC(=O)C(C)(C)N | 2000 nM | 
CCOC(=O)[C@@H](CCCc1ccccc1)NC(=O)[C@@H](Cc1c[nH]c2ccccc12)NC(=O)C(C)(C)N | 1140 nM | 
CC(C)OC(=O)[C@@H](CCc1ccccc1)NC(=O)[C@@H](Cc1c[nH]c2ccccc12)NC(=O)C(C)(C)N | 4 nM | 
CC(C)(N)C(=O)N[C@H](Cc1c[nH]c2ccccc12)C(=O)NCCCc1ccccc1 | 390 nM | 
CCOC(=O)[C@@H](CCc1ccccc1)NC(=O)[C@@H](Cc1ccc2ccccc2c1)NC(=O)C(C)(C)N |  | EC50 (Rattus norvegicus [2]): Not Active
CC(C)(N)C(=O)N[C@H](Cc1c[nH]c2ccccc12)C(=O)N[C@H](CCc1ccccc1)C(=O)OCc1ccccc1 | 500 nM | 
CCOC(=O)[C@H](CCc1ccccc1)NC(=O)[C@@H](Cc1c[nH]c2ccccc12)NC(=O)C(C)(C)N | 3 nM | 
CCOC(=O)[C@H](Cc1ccccc1)NC(=O)[C@@H](Cc1c[nH]c2ccccc12)NC(=O)C(C)(C)N | 240 nM | 
